Assay results: US8883841B2, “Oncogenic ras-specific cytotoxic compound and methods of use thereof” (The Board of Regents of the University of Texas System, priority 2005, dated 2014)
pIC50: −log10 of the molar value. Like-named read-outs stand apart in the source and are kept apart here.

Legend:
[1] = tested on: H460 cells; conditions: for IC50 in H460 cells: Table 1, value is the negative log10 of mol/L
[2] = tested on: T29 cells; conditions: Table 1; value is the negative log10 of mol/L
[3] = tested on: T29Kt1 cells; conditions: Table 1, value is the negative log10 of mol/L
[4] = tested on: H226B cells; experiment: Cell viability, H226B lung cancer cells; assay type: cell-based, human; conditions: for IC50: Homo sapiens
[5] = tested on: A549 cells; experiment: Cell viability, A549 lung cancer cells; assay type: cell-based, human; conditions: for IC50: Homo sapiens, A549, read-out: IC50 (−LogM), A549, Lung (converted)
[6] = tested on: A549CK8; experiment: Cell viability, A549CK8 lung cancer cells; assay type: cell-based, human; conditions: for IC50: Homo sapiens, read-out: IC50 (−LogM) (converted)
[7] = tested on: Hct116; experiment: Cell viability, Hct116 colon cancer cells; assay type: cell-based, human; conditions: for IC50: Homo sapiens
[8] = tested on: CT116P53; experiment: Cell viability, CT116P53 colon cancer cells; assay type: cell-based, human; conditions: for IC50: Homo sapiens, read-out: IC50 (−LogM) (converted)
[9] = tested on: HKE3; experiment: Cell viability, HKE3 colon cancer cells; assay type: cell-based, human; conditions: for IC50: Homo sapiens
[10] = tested on: AsPC-1; experiment: Cell viability, AsPC-1 pancreatic cancer cells; assay type: cell-based, human; conditions: for IC50: Homo sapiens
[11] = tested on: DLD1; experiment: Cell viability, DLD1 colon cancer cells; assay type: cell-based, human; conditions: for IC50: Homo sapiens
[12] = tested on: Heb46; experiment: Cell viability, Heb46 kidney cells; assay type: cell-based
[13] = tested on: Heb44; experiment: Cell viability, Heb44 kidney cells; assay type: cell-based
[14] = tested on: Capanc-1; experiment: Cell viability, Capanc-1 pancreatic cancer cells; assay type: cell-based, human; conditions: for IC50: Homo sapiens, Pancreatic cancer cell
[15] = tested on: miapac; experiment: Cell viability, miapac pancreatic cancer cells; assay type: cell-based, human; conditions: for IC50: Homo sapiens, Pancreatic cancer cell, read-out: IC50 (−LogM) (converted)
[16] = tested on: T29Kt1 cells; experiment: cells; conditions: Homo sapiens, T29Kt1, read-out: IC50 in T29k cells, Table 1
[17] = tested on: H460 cells; experiment: cells; conditions: Homo sapiens; for IC50: NCI-H460, read-out: IC50 (−LogM), H460, Lung (converted); for pIC50: NCI-H460, read-out: IC50 in H460 cells, Table 1
[18] = tested on: H322 cells; experiment: Cell viability, H322 lung cancer cells; assay type: cell-based, human; conditions: for IC50: Homo sapiens
[19] = tested on: H1299 cells; experiment: Cell viability, H1299 lung cancer cells; assay type: cell-based, human; conditions: for IC50: Homo sapiens, NCI-H1299, read-out: IC50 (−LogM), h1299, Lung (converted)
[20] = tested on: Sw620; experiment: Cell viability, Sw620 colon cancer cells; assay type: cell-based, human; conditions: Sw620, Colon
[21] = read-out: IC50 (−LogM), H226B, Lung, first H226B line (converted)
[22] = read-out: IC50 (−LogM), H226B, Lung, second H226B line (converted)
[23] = HCT-116, read-out: IC50 (−LogM), Hct116, Colon (converted)
[24] = read-out: IC50 (−LogM), HKE3, Colon, first HKE3 line (converted)
[25] = read-out: IC50 (−LogM), HKE3, Colon, second HKE3 line (converted)
[26] = ASPC1, read-out: IC50 (−LogM), ASPC1, Pancrease (converted)
[27] = DLD-1, read-out: IC50 (−LogM) (converted)
[28] = read-out: IC50 (−LogM), capanc1, Pancrease (converted)

## 4H-1,2,4-Triazol-4-amine, N-[[1-[(2,4-dichlorophenyl)methyl]-1H-indol-3-yl]methyle> [Oncrasin K002]
[1]
  IC50 in H460 cells: 4.8

## 7H-Pyrrolo[2,3-d]pyrimidin-4-amine, N-[3-(1H-imidazol-1-yl)propyl]-5,6-diphenyl-7- [Oncrasin K017]
[2]
  IC50 in T29 cells: 4.8
[3]
  IC50 in T29k cells: 5

## O=Cc1cn(Cc2ccccc2)c2ccccc12 [Oncrasin K014, 1-Benzylindole-3-carboxaldehyde]
[4]; [21]
  IC50: 2000 nM
[4]; [22]
  IC50: 31600 nM
[5]
  IC50: 31.6 µM
[6]
  IC50: 6.31 µM
[7]; [23]
  IC50: 7.94 µM
[8]
  IC50: < 31.6 µM
[9]; [24]
  IC50: 1 µM
[9]; [25]
  IC50: 5.01 µM
[10]; [26]
  IC50: 7.94 µM
[11]; [27]
  IC50: < 31.6 µM
[12]
  pIC50: 5.50
[13]
  pIC50: 6.30
[14]; [28]
  IC50: 31.6 µM
[15]
  IC50: < 31.6 µM
[16]
  pIC50: 5.30
[17]
  IC50: 25.1 nM
  pIC50: 7.60

## NC(=S)NN=Cc1cn(Cc2ccccc2)c2ccccc12 [Oncrasin K031, Hydrazinecarbothioamide, 2-[[1-(phenylmethyl)-1H-indol-3-yl]methylene]-(9CI)]
[3]
  IC50 in T29k cells: 5

## O=S(=O)(Nc1nccs1)c1ccc(N=Cc2cn(Cc3ccccc3)c3ccccc23)cc1 [Oncrasin K042, Sulfanilamide, N4-[(1-benzylindol-3-yl)methylene]-N1-2-thiazolyl-(8CI)]
[4]; H226B, Lung, first H226B line
  IC50 (−LogM): 5.5 −LogM
[4]; H226B, Lung, second H226B line
  IC50 (−LogM): 5.3 −LogM
[5]; A549, Lung
  IC50 (−LogM): 5 −LogM
[6]; A549CK8, Lung
  IC50 (−LogM): 5.3 −LogM
[7]; Hct116, Colon
  IC50 (−LogM): 5 −LogM
[8]; CT116P53, Colon
  IC50 (−LogM): >4.5 −LogM
[9]; HKE3, Colon, first HKE3 line
  IC50 (−LogM): 6 −LogM
[9]; HKE3, Colon, second HKE3 line
  IC50 (−LogM): 5 −LogM
[18]; H322, Lung
  IC50 (−LogM): >4.5 −LogM
[19]; h1299, Lung
  IC50 (−LogM): >4.5 −LogM
[10]; ASPC1, Pancrease
  IC50 (−LogM): 5 −LogM
[11]; DLD1, Colon
  IC50 (−LogM): >4.5 −LogM
[12]
  IC50 (−LogM): 5.4 −LogM
[13]
  IC50 (−LogM): 6.7 −LogM
[14]; capanc1, Pancrease
  IC50 (−LogM): 5.5 −LogM
[20]
  IC50 (−LogM): >4.5 −LogM
[15]; miapac, Pancrease
  IC50 (−LogM): >4.5 −LogM
[3]
  IC50 in T29k cells: 6
[1]; H460, Lung
  IC50 (−LogM): 8 −LogM
[1]
  IC50 in H460 cells: 8

## O=C1C(=Cc2ccccn2)c2ccccc2N1Cc1ccccc1 [Oncrasin K046, 2-Indolinone, 1-benzyl-3-(2-pyridylmethylene)-(8CI)]
[2]
  IC50 in T29 cells: 5.3
[3]
  IC50 in T29k cells: 5.3

## CC(=O)Oc1cn(Cc2ccccc2)c2ccccc12 [Oncrasin K047, Indoxyl, 1-benzyl-, acetate (6CI)]
[1]
  IC50 in H460 cells: 5

## O=Cc1cn(Cc2ccc(Cl)cc2Cl)c2ccccc12 [Oncrasin K050, 1-(2,4-dichlorobenzyl)-1H-indole-3-carbaldehyde]
[3]; listed as K50
  IC50 in T29k cells: 5
[3]
  IC50 in T29k cells: 5.8
[1]; listed as K50
  IC50 in H460 cells: 6.3
[1]
  IC50 in H460 cells: 7

## O=Cc1cn(Cc2ccccc2F)c2ccccc12 [Oncrasin K051, 1-(2-fluorobenzyl)-1H-indole-3-carbaldehyde]
[4]; [21]
  IC50: 794 nM
[4]; [22]
  IC50: 10000 nM
[5]
  IC50: 12.6 µM
[6]
  IC50: 10 µM
[7]; [23]
  IC50: 10 µM
[8]
  IC50: < 31.6 µM
[9]; [25]
  IC50: 10 µM
[19]
  IC50: 7.94 µM
[10]; [26]
  IC50: 7.94 µM
[11]; [27]
  IC50: < 31.6 µM
[12]
  pIC50: 5.00
[13]
  pIC50: 6.50
[14]; [28]
  IC50: 31.6 µM
[15]
  IC50: < 31.6 µM
[16]
  pIC50: 6.50
[17]
  IC50: 100 nM
  pIC50: 7.00

## CC(=O)c1cn(Cc2cccc(Cl)c2)c2ccccc12 [Oncrasin K058]
[16]
  pIC50: 4.50

## O=Cc1cn(Cc2cccc(C(F)(F)F)c2)c2ccccc12 [Oncrasin K62, 1-[3-(trifluoromethyl)benzyl]-1H-indole-3-carbaldehyde]
[4]; [21]
  IC50: 3160 nM
[4]; [22]
  IC50: 10000 nM
[5]
  IC50: 10 µM
[6]
  IC50: 7.94 µM
[7]; [23]
  IC50: 12.6 µM
[8]
  IC50: < 31.6 µM
[9]; [24]
  IC50: 3.16 µM
[9]; [25]
  IC50: 5.01 µM
[18]; NCI-H322, read-out: IC50 (−LogM) (converted)
  IC50: 10 µM
[19]
  IC50: 10 µM
[10]; [26]
  IC50: 15.8 µM
[11]; [27]
  IC50: < 31.6 µM
[12]
  pIC50: 5.00
[13]
  pIC50: 7.00
[14]; [28]
  IC50: 31.6 µM
[15]
  IC50: < 31.6 µM
[16]
  pIC50: 5.25
[17]
  IC50: 15.8 nM
  pIC50: 7.86

## OCc1cn(Cc2cccc(C(F)(F)F)c2)c2ccccc12 [Oncrasin K63, {1-[3-(trifluoromethyl)benzyl]-1H-indol-3-yl}methanol]
[4]; H226B, Lung, first H226B line, read-out: IC50 (−LogM) (converted)
  IC50: 316 nM
[4]; H226B, Lung, second H226B line, read-out: IC50 (−LogM) (converted)
  IC50: 1580 nM
[6]; A549CK8, Lung
  IC50: 10 µM
[7]; HCT-116, Hct116, Colon, read-out: IC50 (−LogM) (converted)
  IC50: 7.94 µM
[8]; CT116P53, Colon
  IC50: < 31.6 µM
[9]; HKE3, Colon, first HKE3 line, read-out: IC50 (−LogM) (converted)
  IC50: 1 µM
[9]; HKE3, Colon, second HKE3 line, read-out: IC50 (−LogM) (converted)
  IC50: 1.58 µM
[18]; NCI-H322, H322, Lung, read-out: IC50 (−LogM) (converted)
  IC50: 31.6 µM
[10]; ASPC1, Pancrease, read-out: IC50 (−LogM) (converted)
  IC50: 10 µM
[11]; DLD-1, DLD1, Colon, read-out: IC50 (−LogM) (converted)
  IC50: < 31.6 µM
[12]
  pIC50: 5.00
[13]
  pIC50: 6.60
[14]; capanc1, Pancrease, read-out: IC50 (−LogM) (converted)
  IC50: 31.6 µM
[15]; miapac, Pancrease
  IC50: < 31.6 µM
[16]
  pIC50: 6.25
[17]
  IC50: 39.8 nM
  pIC50: 7.40

## O=Cc1cn(Cc2ccc(C(F)(F)F)cc2)c2ccccc12 [Oncrasin K64, 1H-Indole-3-carboxaldehyde, 1-[[4-(trifluoromethyl)phenyl]methyl]-(9CI)]
[1]
  IC50 in H460 cells: 5.8

## OCN1CC(Cc2ccc(C(F)(F)F)cc2)c2ccccc21 (centres unmarked) [Oncrasin K65]
[16]
  pIC50: 5.90
[17]
  pIC50: 5.90

## Cc1ccc(Cn2cc(CO)c3ccccc32)cc1 [Oncrasin K67, 1H-Indole-3-methanol, 1-[(4-methylphenyl)methyl]-(9CI)]
[2]
  IC50 in T29 cells: 4.8
[3]
  IC50 in T29k cells: 6.1
[1]
  IC50 in H460 cells: 7

## O=Cc1cn(Cc2ccc([N+](=O)[O-])cc2)c2ccccc12 [Oncrasin K70, 1-(4-nitrobenzyl)-1H-indole-3-carbaldehyde]
[16]
  pIC50: 5.00
[17]
  pIC50: 6.30

## OCc1cn(Cc2cccc(Cl)c2)c2ccccc12 [Oncrasin K72, 1H-Indole-3-methanol, 1-[(3-chlorophenyl)methyl]-(9CI)]
[3]
  IC50 in T29k cells: 5.75
[1]
  IC50 in H460 cells: 5.9

## OCc1cn(Cc2ccc(Cl)cc2Cl)c2ccccc12 [Oncrasin K74, 1H-Indole-3-methanol, 1-[(2,4-dichlorophenyl)methyl]-]
[16]
  pIC50: 5.80
[17]
  pIC50: 7.10

## O=C(CCCCCCC(=O)N/N=C/c1cn(Cc2ccc(Cl)cc2)c2ccccc12)CCCCC1SCC2NC(=O)NC21 (centres unmarked) [Oncrasin K130]
[16]
  pIC50: 5.60
[17]
  pIC50: 6.40
